Measurements taken from US9540691B2, “Assays and methods for selecting a treatment regimen for a subject with depression” (THE GENERAL HOSPITAL CORPORATION, priority 2011, dated 2017).
Where two headings read alike, the source gives them in different places.

Test system: MDD patients carrying the indicated conditions
Details: Phase I, with SSRI
Description: Folate levels are classified as either low (<=2.5 ng/ml) or normal; and homocysteine levels as either normal or elevated (>=[…]). The presence or absence of at least one […] allele for the MTHFR gene are entered as a dichotomous variable (present or absent). […] Using folate as an example predicator, the presence or absence of a low serum-folate level along with treatment assignment can be entered in a 2×2, factorial ANOVA, using depression improvement scores (baseline minus endpoint HAM-D-17 scores) as the dependant variable. […] Similar analyses (i.e. separate 2×2 ANOVA's) can be performed substituting the presence of low folate levels for the presence of other predictors as described herein. Similarly, the effect of other predictors can be indicated by the interaction term representing the potential modulating influence of those variables.
Particularly, specific genetic and biomarkers that were assessed include the following: • (a) BMI calculation of at least about 30 kg/m^2; • (b) an expression ratio of SAM/SAH smaller than 2.8 (e.g., 2.71) as measured in a plasma sample; • (c) a level of 4-HNE no less than 3.28 μg/mL (as measured in a plasma sample); • (d) presence of rare variants CT or TT at position 677 of SEQ ID NO: 1 corresponding to a portion of a genomic nucleic acid sequence of methylenetetrahydrofolate reductase (MTHFR) (abbreviated as “MTHFR 677” below); • (e) presence of rare variants AG or GG at position 2756 of SEQ ID NO: 2 corresponding to a portion of genomic nucleic acid sequence of methionine synthase (MTR) (abbreviated as “MTR 2756” below); and • (f) presence of rare variants AG or GG at position 66 of SEQ ID NO: 3 corresponding to a portion of genomic nucleic acid sequence of methionine synthase reductase (MTRR) (abbreviated as “MTRR 66” below).
The efficacy effect is determined by measuring the mean change in the HAMD-17 score and HAMD-28 score by the end of Phase I and Phase II, as compared to the baseline.

Compound: CN1c2c(nc(N)[nH]c2=O)NC[C@@H]1CNc1ccc(C(=O)N[C@@H](CCC(=O)O)C(=O)O)cc1 [6(S)-5-MTHF, 6(S)-5-methyltetrahydrofolate]
- Effect, change in HAMD-17 score (25 =< BMI < 30 kg/m^2 (18, 10)): 2.600
- Effect, change in HAMD-28 score (25 =< BMI < 30 kg/m^2 (18, 10)): 2.602
- Effect, change in HAMD-17 score (BMI < 25 (14, 7)): 1.576
- Effect, change in HAMD-28 score (BMI < 25 (14, 7)): 0.909
- Effect, change in HAMD-17 score (BMI < 30 kg/m^2 and HNE-His < median (19, 9)): 3.771
- Effect, change in HAMD-28 score (BMI < 30 kg/m^2 and HNE-His < median): 4.606
- Effect, change in HAMD-17 score (BMI < 30 kg/m^2 and SAM/SAH >= median (16,8)): 4.333
- Effect, change in HAMD-28 score (BMI < 30 kg/m^2 and SAM/SAH >= median): 4.333
- Effect, change in HAMD-17 score (BMI >= 30 kg/m^2 (40,21)): −6.414
- Effect, change in HAMD-28 score (BMI >= 30 kg/m^2 (40,21)): −6.677
- Effect, change in HAMD-17 score (BMI >= 30 kg/m^2 and HNE-His >= median (23, 11)): −6.569
- Effect, change in HAMD-28 score (BMI >= 30 kg/m^2 and HNE-His >= median): −6.510
- Effect, change in HAMD-17 score (BMI >= 30 kg/m^2 and SAM/SAH < median (21,9)): −5.611
- Effect, change in HAMD-28 score (BMI >= 30 kg/m^2 and SAM/SAH < median = 2.71 (plasma sample)): −6.306
- Effect, change in HAMD-17 score (MTHFR 677 CC and BMI < 30 kg/m^2 (17,8)): 4.500
- Effect, change in HAMD-28 score (MTHFR 677 CC and BMI < 30 kg/m^2): 2.769
- Effect, change in HAMD-17 score (MTHFR 677 CC and HNE-His < median (20,11)): −1.471
- Effect, change in HAMD-28 score (MTHFR 677 CC and HNE-His < median = 3.28 (plasma sample)): −2.821
- Effect, change in HAMD-17 score (MTHFR 677 CC and MTR 2756 AA (29,13)): −0.700
- Effect, change in HAMD-28 score (MTHFR 677 CC and MTR 2756 AA): −0.192
- Effect, change in HAMD-17 score (MTHFR 677 CT or TT and BMI >= 30 kg/m^2 (13,6)): −8.738
- Effect, change in HAMD-28 score (MTHFR 677 CT or TT and BMI >= 30 kg/m^2): −9.857
- Effect, change in HAMD-17 score (MTHFR 677 CT or TT and HNE-His >= median (11,6)): −7.143
- Effect, change in HAMD-28 score (MTHFR 677 CT or TT and HNE-His >= median): −6.929
- Effect, change in HAMD-17 score (MTHFR 677 CT or TT and MTR 2756 AG or GG (8,4)): −13.47
- Effect, change in HAMD-28 score (MTHFR 677 CT or TT and MTR 2756 AG or GG): −18.00
- Effect, change in HAMD-17 score (MTR 2756 AA (45,21)): −0.621
- Effect, change in HAMD-17 score (MTR 2756 AA and BMI < 30 kg/m^2 (17,7)): 4.476
- Effect, change in HAMD-28 score (MTR 2756 AA and BMI < 30 kg/m^2): 5.524
- Effect, change in HAMD-17 score (MTR 2756 AA and HNE-His < median (26,13)): 0.306
- Effect, change in HAMD-28 score (MTR 2756 AA and HNE-His < median): 0.639
- Effect, change in HAMD-17 score (MTR 2756 AA and MTRR 66 AA (11,5)): 3.125
- Effect, change in HAMD-17 score (MTR 2756 AA and MTRR 66 AA and HNE-His < median (6,4)): 3.000
- Effect, change in HAMD-28 score (MTR 2756 AA and MTRR 66 AA and HNE-His < median = 3.28 (plasma sample)): 4.200
- Effect, change in HAMD-17 score (MTR 2756 AA and MTRR 66 AA and SAM/SAH >= median (6,3)): −0.400
- Effect, change in HAMD-28 score (MTR 2756 AA and MTRR 66 AA and SAM/SAH >= median): −1.000
- Effect, change in HAMD-28 score (MTR 2756 AA and MTRR 66 AA): 5.000
- Effect, change in HAMD-17 score (MTR 2756 AA and SAM/SAH >= median (24,12)): −1.556
- Effect, change in HAMD-28 score (MTR 2756 AA and SAM/SAH >= median): −1.278
- Effect, change in HAMD-28 score (MTR 2756 AA): 0.409
- Effect, change in HAMD-17 score (MTR 2756 AG or GG and BMI >= 30 kg/m^2 (10,5)): −12.905
- Effect, change in HAMD-28 score (MTR 2756 AG or GG and BMI >= 30 kg/m^2): −18.762
- Effect, change in HAMD-17 score (MTR 2756 AG or GG and HNE-His >= median (13,7)): −7.125
- Effect, change in HAMD-28 score (MTR 2756 AG or GG and HNE-His >= median = 3.28 (plasma sample)): −9.950
- Effect, change in HAMD-17 score (MTR 2756 AG or GG and MTRR 66 AG or GG (15,7)): −6.900
- Effect, change in HAMD-17 score (MTR 2756 AG or GG and MTRR 66 AG or GG and BMI >= 30 kg/m^2 (8,4)): −13.667
- Effect, change in HAMD-28 score (MTR 2756 AG or GG and MTRR 66 AG or GG and BMI >= 30 kg/m^2): −18.833
- Effect, change in HAMD-17 score (MTR 2756 AG or GG and MTRR 66 AG or GG and HNE-His >= median (10,4)): −7.200
- Effect, change in HAMD-28 score (MTR 2756 AG or GG and MTRR 66 AG or GG and HNE-His >= median): −9.800
- Effect, change in HAMD-17 score (MTR 2756 AG or GG and MTRR 66 AG or GG and SAM/SAH < median (8,3)): −9.000
- Effect, change in HAMD-28 score (MTR 2756 AG or GG and MTRR 66 AG or GG and SAM/SAH < median = 2.71 (plasma sample)): −12.741
- Effect, change in HAMD-28 score (MTR 2756 AG or GG and MTRR 66 AG or GG): −9.996
- Effect, change in HAMD-17 score (MTR 2756 AG or GG and SAM/SAH < median (10,4)): −9.800
- Effect, change in HAMD-28 score (MTR 2756 AG or GG and SAM/SAH < median = 2.71 (plasma sample)): −14.993
- Effect, change in HAMD-17 score (MTR 2756 AG/GG (20,11)): −7.143
- Effect, change in HAMD-28 score (MTR 2756 AG/GG): −10.926
